# Source: US20080171783A1, “COMPOSITIONS AND METHODS FOR TREATING HYPERPROLIFERATIVE DISEASE” (Migenix Inc., priority 2006, published 2008)
# Tests used:
# Experiment in all cases: NCI In Vitro Cell Line Screening (SRB)
# SNB-19 = assay type: cell-based, human; details: SNB-19, CNS Cancer, 48 h
# A549/ATCC = assay type: cell-based; details: Non-Small Cell Lung Cancer, 48 h; for GI50 / CC50: Homo sapiens; for CC50: read-out: LC50 (the source's name)
# PC-3 = assay type: cell-based, human; details: PC-3, Prostate Cancer, 48 h; for GI50 / CC50: Homo sapiens; for CC50: read-out: LC50 (the source's name)
# MDA-MB-468 = details: for TGI: MDA-MB-468, Breast Cancer, 48 h
# A498 = assay type: cell-based, human; details: A498, Renal Cancer, 48 h; for GI50 / CC50: Homo sapiens; for CC50: read-out: LC50 (the source's name)
# SF-268 = assay type: cell-based, human; details: SF-268, CNS Cancer, 48 h; for GI50 / LC50: Homo sapiens
# ACHN = assay type: cell-based, human; details: Renal Cancer, 48 h; for GI50 / CC50: Homo sapiens; for CC50: read-out: LC50 (the source's name)
# OVCAR-5 = assay type: cell-based, human; details: OVCAR-5, Ovarian Cancer, 48 h; for GI50 / CC50: Homo sapiens; for CC50: read-out: LC50 (the source's name)
# HOP-92 = assay type: cell-based, human; details: HOP-92, Non-Small Cell Lung Cancer, 48 h; for GI50 / CC50: Homo sapiens; for CC50: read-out: LC50 (the source's name)
# MDA-MB-231/ATCC = assay type: cell-based, human; details: Breast Cancer, 48 h; for GI50 / CC50: Homo sapiens; for CC50: read-out: LC50 (the source's name)
# UACC-62 = assay type: cell-based, human; details: UACC-62, Melanoma, 48 h; for GI50 / CC50: Homo sapiens; for CC50: read-out: LC50 (the source's name)
# SNB-75 = assay type: cell-based, human; details: SNB-75, CNS Cancer, 48 h; for GI50 / CC50: Homo sapiens; for CC50: read-out: LC50 (the source's name)
# SF-539 = assay type: cell-based, human; details: SF-539, CNS Cancer, 48 h; for GI50 / CC50: Homo sapiens; for CC50: read-out: LC50 (the source's name)
# HS 578T = assay type: cell-based, human; details: Breast Cancer, 48 h; for GI50 / CC50: Homo sapiens; for CC50: read-out: LC50 (the source's name)
# CAKI-1 = assay type: cell-based, human; details: CAKI-1, Renal Cancer, 48 h; for GI50 / CC50: Homo sapiens; for CC50: read-out: LC50 (the source's name)
# NCI-H322M = assay type: cell-based, human; details: Non-Small Cell Lung Cancer, 48 h; for GI50 / CC50: Homo sapiens; for CC50: read-out: LC50 (the source's name)
# U251 = assay type: cell-based, human; details: U251, CNS Cancer, 48 h; for GI50 / CC50: Homo sapiens, U-251; for CC50: read-out: LC50 (the source's name)
# SK-OV-3 = assay type: cell-based, human; details: SK-OV-3, Ovarian Cancer, 48 h; for GI50 / CC50: Homo sapiens; for CC50: read-out: LC50 (the source's name)
# MALME-3M = assay type: cell-based, human; details: Melanoma, 48 h; for GI50 / CC50: Homo sapiens; for CC50: read-out: LC50 (the source's name)
# K-562 = assay type: cell-based; details: K-562, Leukemia, 48 h
# EKVX = assay type: cell-based, human; details: Non-Small Cell Lung Cancer, 48 h; for GI50 / LC50: Homo sapiens
# TK-10 = assay type: cell-based, human; details: TK-10, Renal Cancer, 48 h; for GI50 / CC50: Homo sapiens; for CC50: read-out: LC50 (the source's name)
# SW-620 = assay type: cell-based; details: SW-620, Colon Cancer, 48 h; for GI50 / CC50: Homo sapiens; for CC50: read-out: LC50 (the source's name)
# OVCAR-3 = details: for GI50 / CC50: Homo sapiens, OVCAR-3, 48 h; for CC50: read-out: LC50; for TGI: OVCAR-3, Ovarian Cancer, 48 h
# NCI-H23 = assay type: cell-based; details: NCI-H23, Non-Small Cell Lung Cancer, 48 h
# NCI-H460 = assay type: cell-based, human; details: NCI-H460, Non-Small Cell Lung Cancer, 48 h; for GI50 / CC50: Homo sapiens; for CC50: read-out: LC50 (the source's name)
# M14 = assay type: cell-based, human; details: M14, Melanoma, 48 h; for GI50 / CC50: Homo sapiens; for CC50: read-out: LC50 (the source's name)
compound,measurement,setting,value
"CC(C)(C)c1ccc(NC(=O)[C@H](CCCCN)NC(=O)OCC2c3ccccc3-c3ccccc32)cc1 [Compound 105, (S)-[5-AMINO-1-(4-TERT-BUTYL-PHENYLCARBAMOYL)-PENTYL]-CARBAMIC ACID 9H-FLUOREN-9-YLMETHYL ESTER]",GI50,SNB-19; Homo sapiens,1.6 µM
same,CC50,"SNB-19; Homo sapiens, read-out: LC50 (the source's name)",5.68 µM
same,TGI,SNB-19,3.01 µM
same,GI50,A549/ATCC,1.77 µM
same,CC50,A549/ATCC,> 100 µM
same,TGI,A549/ATCC,23.5 µM
same,GI50,PC-3,1.73 µM
same,CC50,PC-3,6.41 µM
same,TGI,PC-3,3.33 µM
same,GI50,"MDA-MB-468; Homo sapiens, MDA-MB-468, 48 h",1.46 µM
same,TGI,MDA-MB-468,3.27 µM
same,TGI,A498,0.665 µM
same,GI50,A498,0.116 µM
same,CC50,A498,15.5 µM
same,GI50,SF-268,17 µM
same,LC50,SF-268,58.3 µM
same,TGI,SF-268,31.5 µM
same,GI50,ACHN,15.7 µM
same,CC50,ACHN,58.5 µM
same,TGI,ACHN,30.3 µM
same,GI50,OVCAR-5,1.85 µM
same,CC50,OVCAR-5,6.5 µM
same,TGI,OVCAR-5,3.46 µM
same,TGI,HOP-92,3.08 µM
same,GI50,HOP-92,1.34 µM
same,CC50,HOP-92,7.1 µM
same,TGI,MDA-MB-231/ATCC,26.8 µM
same,GI50,MDA-MB-231/ATCC,11.1 µM
same,CC50,MDA-MB-231/ATCC,64.7 µM
same,GI50,UACC-62,13.7 µM
same,CC50,UACC-62,58.2 µM
same,TGI,UACC-62,28.2 µM
same,GI50,SNB-75,1.29 µM
same,CC50,SNB-75,5.97 µM
same,TGI,SNB-75,2.78 µM
same,GI50,SF-539,1.48 µM
same,CC50,SF-539,5.63 µM
same,TGI,SF-539,2.89 µM
same,TGI,HS 578T,16.7 µM
same,GI50,HS 578T,2.93 µM
same,CC50,HS 578T,48.7 µM
same,TGI,CAKI-1,43.9 µM
same,GI50,CAKI-1,19.8 µM
same,CC50,CAKI-1,97.2 µM
same,GI50,NCI-H322M,13.5 µM
same,CC50,NCI-H322M,69.9 µM
same,TGI,NCI-H322M,30.7 µM
same,GI50,U251,4.74 µM
same,CC50,U251,48.3 µM
same,TGI,U251,17.3 µM
same,GI50,SK-OV-3,1.85 µM
same,CC50,SK-OV-3,5.99 µM
same,TGI,SK-OV-3,3.33 µM
same,GI50,MALME-3M,15.6 µM
same,CC50,MALME-3M,89.5 µM
same,TGI,MALME-3M,37.4 µM
same,GI50,"K-562; Homo sapiens, K562",1.39 µM
same,TGI,K-562,3.32 µM
same,GI50,EKVX,21 µM
same,LC50,EKVX,90 µM
same,TGI,EKVX,43.5 µM
same,GI50,TK-10,14.1 µM
same,CC50,TK-10,82.9 µM
same,TGI,TK-10,34.1 µM
same,GI50,SW-620,2.49 µM
same,CC50,SW-620,21.7 µM
same,TGI,SW-620,6.24 µM
same,GI50,OVCAR-3,16.1 µM
same,CC50,OVCAR-3,56.3 µM
same,TGI,OVCAR-3,30.1 µM
same,LC50 (concentration giving 50% net cell kill),NCI-H23; Homo sapiens,5.47 µM
same,TGI,NCI-H23,1.95 µM
same,GI50,NCI-H460,1.13 µM
same,CC50,NCI-H460,5.37 µM
same,TGI,NCI-H460,2.47 µM
same,GI50,M14,1.77 µM
same,CC50,M14,6.55 µM
same,TGI,M14,3.40 µM
"Cc1ccc(NC(=O)[C@@H](CCCCN)NC(=O)Nc2ccc3c(c2)Cc2ccccc2-3)cc1 [Compound 173, (R)-6-AMINO-2-[3-(9H-FLUOREN-2-YL)-UREIDO]-HEXANOIC ACID P-TOLYLAMIDE]",GI50,SNB-19; Homo sapiens,1.59 µM
same,TGI,SNB-19,3.21 µM
same,GI50,A549/ATCC,1.55 µM
same,CC50,A549/ATCC,7.66 µM
same,TGI,A549/ATCC,3.45 µM
same,GI50,PC-3,2.78 µM
same,CC50,PC-3,44.5 µM
same,TGI,PC-3,11.0 µM
same,GI50,"MDA-MB-468; Homo sapiens, MDA-MB-468, 48 h",1.66 µM
same,CC50,"MDA-MB-468; Homo sapiens, MDA-MB-468, 48 h, read-out: LC50",8.31 µM
same,TGI,MDA-MB-468,3.72 µM
same,TGI,A498,8.26 µM
same,GI50,A498,1.99 µM
same,CC50,A498,37.9 µM
same,GI50,SF-268,7.37 µM
same,LC50,SF-268,51 µM
same,TGI,SF-268,21.8 µM
same,GI50,ACHN,12.2 µM
same,CC50,ACHN,54.7 µM
same,TGI,ACHN,25.8 µM
same,GI50,OVCAR-5,1.92 µM
same,CC50,OVCAR-5,6.57 µM
same,TGI,OVCAR-5,3.55 µM
same,TGI,HOP-92,5.13 µM
same,GI50,HOP-92,1.37 µM
same,CC50,HOP-92,38.5 µM
same,TGI,MDA-MB-231/ATCC,2.57 µM
same,GI50,MDA-MB-231/ATCC,1.26 µM
same,CC50,MDA-MB-231/ATCC,5.24 µM
same,GI50,UACC-62,1.15 µM
same,CC50,UACC-62,6.52 µM
same,TGI,UACC-62,2.74 µM
same,GI50,SNB-75,1.61 µM
same,CC50,SNB-75,> 100 µM
same,TGI,SNB-75,4.65 µM
same,GI50,SF-539,1.92 µM
same,CC50,SF-539,11.9 µM
same,TGI,SF-539,4.48 µM
same,TGI,HS 578T,4.77 µM
same,GI50,HS 578T,1.64 µM
same,CC50,HS 578T,32.7 µM
same,TGI,CAKI-1,34.0 µM
same,GI50,CAKI-1,0.135 µM
same,CC50,CAKI-1,> 100 µM
same,GI50,NCI-H322M,2.54 µM
same,CC50,NCI-H322M,39.8 µM
same,TGI,NCI-H322M,12.0 µM
same,GI50,U251,1.49 µM
same,CC50,U251,5.3 µM
same,TGI,U251,2.80 µM
same,GI50,SK-OV-3,1.61 µM
same,CC50,SK-OV-3,5.88 µM
same,TGI,SK-OV-3,3.08 µM
same,GI50,MALME-3M,1.55 µM
same,CC50,MALME-3M,8.23 µM
same,TGI,MALME-3M,3.57 µM
same,GI50,"K-562; Homo sapiens, K562",1.67 µM
same,CC50,"K-562; Homo sapiens, K562, read-out: LC50 (the source's name)",> 100 µM
same,GI50,EKVX,1.19 µM
same,LC50,EKVX,> 100 µM
same,TGI,EKVX,46.2 µM
same,GI50,TK-10,3.59 µM
same,CC50,TK-10,55.4 µM
same,TGI,TK-10,17.6 µM
same,GI50,SW-620,1.67 µM
same,CC50,SW-620,6.12 µM
same,TGI,SW-620,3.19 µM
same,GI50,OVCAR-3,1.31 µM
same,CC50,OVCAR-3,31.6 µM
same,TGI,OVCAR-3,9.94 µM
same,GI50,NCI-H23; Homo sapiens,3.45 µM
same,LC50 (concentration giving 50% net cell kill),NCI-H23; Homo sapiens,> 100 µM
same,TGI,NCI-H23,19.6 µM
same,GI50,NCI-H460,1.86 µM
same,CC50,NCI-H460,6.33 µM
same,TGI,NCI-H460,3.43 µM
same,GI50,M14,3.43 µM
same,CC50,M14,> 100 µM
same,TGI,M14,11.4 µM
